Laboratory results from paper PMC6694100, “The complex of ferric-enterobactin with its transporter from Pseudomonas aeruginosa suggests a two-site model” (Nature Communications, 2019).
Where “and” joins values, the source holds several entries; their conditions need not be identical. Equal entries are not always repeated. Entries after “also recorded” stand apart in the source; their conditions may differ.

Legend:
PfeA Q482A mutant = target: T1, PfeA Q482A mutant (Pseudomonas aeruginosa, UniProt Q05098, Q507A); experiment: isothermal titration calorimetry, PfeA Q482A; assay type: binding
T1 construct: His7 tag with TEV protease site (N, cleaved yes); made in house; host or cells: E. coli C43 (DE3)
T1 sequence (Q05098 26-746 Q507A): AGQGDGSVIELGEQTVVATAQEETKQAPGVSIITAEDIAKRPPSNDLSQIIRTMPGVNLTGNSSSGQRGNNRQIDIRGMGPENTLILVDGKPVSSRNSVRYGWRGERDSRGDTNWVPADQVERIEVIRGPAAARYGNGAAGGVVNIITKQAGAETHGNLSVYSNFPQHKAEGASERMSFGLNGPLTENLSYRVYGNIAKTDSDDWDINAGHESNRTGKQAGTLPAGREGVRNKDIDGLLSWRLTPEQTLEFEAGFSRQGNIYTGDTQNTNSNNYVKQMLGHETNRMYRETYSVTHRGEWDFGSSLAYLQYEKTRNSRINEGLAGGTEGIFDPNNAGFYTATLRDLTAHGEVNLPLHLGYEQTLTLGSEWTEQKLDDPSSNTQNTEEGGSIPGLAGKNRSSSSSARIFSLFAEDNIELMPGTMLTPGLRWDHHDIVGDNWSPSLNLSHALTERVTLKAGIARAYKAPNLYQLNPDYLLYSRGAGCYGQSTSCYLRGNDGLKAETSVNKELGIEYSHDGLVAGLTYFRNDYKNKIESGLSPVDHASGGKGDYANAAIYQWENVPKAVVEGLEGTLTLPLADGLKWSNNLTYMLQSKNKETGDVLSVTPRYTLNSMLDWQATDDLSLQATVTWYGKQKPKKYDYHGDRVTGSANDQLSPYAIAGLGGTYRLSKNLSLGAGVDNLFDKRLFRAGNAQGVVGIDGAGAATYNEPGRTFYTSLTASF
Method: The sites have different affinities for the ligand, one with high affinity and highly favourable enthalpy and the second with lower affinity and unfavourable enthalpy. Although the biphasic nature of the isotherm was reproducible, the numerical values varied. For K1, the binding constant was 20 to 100 nM; for K2 […]. […] The weaker binding at the […] site is consistent with the higher B-factor of the Fe^3+-enterobactin molecule observed in the complex crystal structures.
Affinities of PfeA wild-type and mutants for Fe^3+-enterobactin were measured by isothermal titration calorimetry using a VP-ITC instrument (GE Healthcare) at 25 °C. Titrations were performed using 57 × 5 μl injections of Fe^3+-enterobactin (70–55 μM) into 10 μM protein. The heats of dilution measured from injection of the ligands into the buffer were subtracted, and titration curves were fitted using AFFINImeter software with a two-site binding model. Concentrations of Fe^3+-enterobactin solutions were verified with UV/vis spectrophotometry using a published molar extinction coefficient of ε495 = 5600 M^−1 cm^−1. […] Reverse titration has been also performed (PfeA into Fe^3+-enterobactin), but data suffer from high heats of dilution in the beginning of the blank titration of PfeA into the buffer giving estimates of K1 = 95 nM and K2 = 4.5 μM for the wild-type.

[1] = test system: ∆pfeA(pMMBpfeA) cells (native PfeA); experiment: 55Fe-enterobactin binding and uptake assay, ∆pfeA(pMMBpfeA); assay type: cell-based, Pseudomonas aeruginosa; conditions: for Comptage (dpm): replicate counts; for Comptage (dpm) / 55Fe incorporated, pmol/ml/DO600: Supplementary Fig 10, listed as 55Fe-enterobactin; for 55Fe incorporated, pmol/ml/DO600: replicates
Method: (§1) Fig. 6 Effects of PfeA mutation in vivo. a Analysis of changes in the transcription of pfeA gene. PAO1 strain, its corresponding deletion mutant ∆pfeA and deletion mutants carrying the expression plasmid of PfeA wild-type (∆pfeA(pMMBpfeA) or the R480A-Q482A mutant (∆pfeA(pMMBpfeAR480AQ482A)) were grown in CAA medium supplemented with 10 µM enterobactin. The data were normalised relative to the reference gene uvrD, and are representative of three independent experiments performed in triplicate (n = 3). The results are given as a ratio between the values obtained for ∆pfeA, ∆pfeA(pMMBpfeA) and ∆pfeA(pMMBpfeAR480AQ482A) over those obtained for the PAO1 strain. b ^55Fe-enterobactin binding at the bacterial surface. Cells were grown as in panel a, and were incubated for 15 min with 200 µM CCCP before initiation of transport assays by the addition of 500 nM ^55Fe-enterobactin. After 30 min incubation, the radioactivity accumulated in the bacteria was counted. The results are expressed as pmol of ^55Fe-enterobactin bound per ml of cells at an OD600 of 1. The experiments have been repeated three times. c ^55Fe-enterobactin binding and uptake. Cells were grown as in panel a, and were incubated with or without 200 µM CCCP before initiation of transport assays by the addition of 500 nM ^55Fe-enterobactin. After 30 min incubations, the radioactivity accumulated in the bacteria was counted. The results are expressed as pmol of ^55Fe-enterobactin bound and transported per ml of cells at an OD600 of 1. The experiments have been repeated three times
(§2) The complex was prepared at ^55Fe concentrations of 50 μM, with a siderophore:iron (mol:mol) ratio of 20:1. P. aeruginosa strains were first grown overnight at 30 °C in LB broth, and were then washed, resuspended and cultured overnight at 30 °C in iron-deficient CAA medium (casamino acid medium, composition: 5 g.l^−1 low-iron CAA (Difco), 1.46 g.l^−1 K2HPO4 3H2O, 0.25 g.l^−1 MgSO4 7H2O) and in the presence of 10 µM enterobactin to induce the expression of PfeA. CAA is a highly iron-restricted medium with iron concentrations of 20 nM[59]. Afterwards bacteria were washed with 50 mM Tris-HCl pH 8.0, and diluted to an OD600 of 1. Cells solutions were divided in two, one batch being treated with 200 μM CCCP. This compound collapses the proton-motive force across the bacterial cell membranes, inhibiting TonB-dependent iron uptake. Binding and transport assays were initiated by adding 500 nM ^55Fe-enterobactin to the bacterial solutions treated or not with CCCP. After 30 min of incubations, cells were centrifuged, and the radioactivity associated to the bacteria was monitored in the cell pellets. For the cells treated with CCCP, the radioactivity in the cell pellets corresponds to the binding of ^55Fe-enterobactin to P. aeruginosa cell surface, since no uptake occurs. In the absence of CCCP, the radioactivity associated to the cells corresponds to ^55Fe-enterobactin binding to the cell surface and the uptake into the bacteria.

[2] = test system: ∆pfeA cells with no plasmid; experiment: 55Fe-enterobactin binding and uptake assay, ∆pfeA; assay type: cell-based, Pseudomonas aeruginosa; conditions: for 55Fe count, Comptage / 55Fe-enterobactin bound/taken up: replicates, Figure 6b-c, listed as 55Fe-enterobactin
Method: as §1, §2

O=C(N[C@H]1COC(=O)[C@@H](NC(=O)c2cccc([O-])c2[O-])COC(=O)[C@@H](NC(=O)c2cccc([O-])c2[O-])COC1=O)c1cccc([O-])c1[O-].[Fe+3] [Fe^3+-enterobactin] was tested, and the “binding by ITC” value (PfeA Q482A mutant) was “biphasic isotherms, but with much reduced heat output and smaller K1 values; also recorded: weakened (but detectable) binding”, the “^55Fe-siderophore binding at the bacterial surface” value ([1]; CCCP treated cells (200 µM), 500 nM ^55Fe-enterobactin, 30 min, compared with wild-type PAO1) was “much higher levels of binding” and the “^55Fe-enterobactin binding and uptake” value ([1]; cells not treated with CCCP, 500 nM ^55Fe-enterobactin, 30 min) was “less efficient”. For the same compound, the “Comptage (dpm)” value ([1]; ∆pfeA (pMMBpfeA) (no CCCP)) was 9474 dpm and 9114 dpm and 9574 dpm, the “55Fe incorporated, pmol/ml/DO600” value ([1]; ∆pfeA (pMMBpfeA) (no CCCP)) was 121.551 pmol/ml/DO600 and 116.932 pmol/ml/DO600 and 122.834 pmol/ml/DO600 and the “Comptage (dpm)” value ([1]; ∆pfeA (pMMBpfeA) + CCCP) was 6090 dpm and 6603 dpm and 5856 dpm. The “55Fe incorporated, pmol/ml/DO600” value ([1]; ∆pfeA (pMMBpfeA) + CCCP) was 78.1342 pmol/ml/DO600 and 84.716 pmol/ml/DO600 and 75.132 pmol/ml/DO600, the “^55Fe-siderophore binding at the bacterial surface” value ([2]; CCCP treated cells (200 µM), 500 nM ^55Fe-enterobactin, 30 min) was “same low level of binding as wild-type PAO1” and the “55Fe count, Comptage” value ([2]; ∆pfeA + CCCP) was 1560 dpm and 1268 dpm and 1340 dpm. For the same compound, the 55Fe-enterobactin bound/taken up ([2]; ∆pfeA + CCCP) was 20.0147 pmol/ml/DO600 and 16.2683 pmol/ml/DO600 and 17.1921 pmol/ml/DO600, the “55Fe count, Comptage” value ([2]; ∆pfeA, no CCCP) was 3228 dpm and 4151 dpm and 2977 dpm and the 55Fe-enterobactin bound/taken up ([2]; ∆pfeA, no CCCP) was 41.415 pmol/ml/DO600 and 53.257 pmol/ml/DO600 and 38.1947 pmol/ml/DO600.
